The subject of the assay is Stimulated LTB4 Formation in Human Polymorphonuclear Leukocytes. The assay is described as follows: Inhibition of calcium ionophore-stimulated LTB4 formation in human polymorphonuclear leukocytes (PMNL). In kind it is cell-based. The following applies: for IC50: calcium ionophore 8.3 μM.3 μM, 15 min preincubation, 37° C, read-out: IC50, In Vitro Inhibitory Potencies Against Stimulated LTB4 Formation in Human Polymorphonuclear Leukocytes. How it is done: Inhibition of leukotriene biosynthesis was evaluated in an assay involving calcium ionophore-induced LTB4 expressed in human polymorphornuclear leukocytes (PMNL). Human PMNL isolated from heparinized (20 USP units/mL) venous blood (25 mL) obtained from healthy volunteers was layered over an equal volume of Ficoll-Hypaque Mono-Poly Resolving Medium (ICN Flow, Costa Mesa, CA) and centrifugated at 400 × g for 40 min at 20° C. The PMNL was collected, erythrocytes lysed and washed 2× and suspended at 1.0×10^7 cells/mL in Earle's balanced salt solution with 17 mM Earle's HEPES. Aliquots of the cell suspension were preincubated with test compounds dissolved in DMSO (final concentration <2%) for 15 min. and stimulated with calcium ionophore (final concentration 8.3 μM) for 10 min. at 37° C. Incubations were stopped with the addition of two volumes of ice-cold methanol followed by centrifuging the cell suspensions at 4° C. for 10 min at 450×g. The amount of LTB4 in the methanol extract was analyzed by enzyme-linked linked immunoassay or by HPLC analysis.

Take `CN(O)C(=O)CSC(CCCc1ccc(Cl)cc1)c1ccc(OCc2ccc3ccccc3n2)cc1` (stereo not drawn) [Example 1, {[4-(4-Chlorophenyl)-1-(4-[2-quinolinylmethoxy]phenyl)butyl]thio}acetic acid (N-hydroxy-N-methyl)amide]: the “% Inhibition, Stimulated LTB4 Formation in Human Polymorphonuclear Leukocytes” value (at ~0.095 μmol, calcium ionophore 8.3 μM) is 63%.

Consider `CN(O)C(=O)CON=C(CCCc1ccc(Cl)cc1)c1ccc(OCc2ccc3ccccc3n2)cc1` [Example 2, [(4-(4-Chlorophenyl)-1-(4-(2-quinolinylmethoxy)phenyl)butyl)oximino]acetic acid (N-hydroxy-N-methyl)amide], for which the 50% inhibitory concentration (IC50) was determined as 66 nM. On the same count and under the same terms, under `CN(O)C(=O)C(CC1CCCCC1)c1ccc(OCc2ccc3ccccc3n2)cc1` (stereo not drawn) [Example 3, 3-Cyclohexyl-2-[4-(quinolin-2-yl-methoxy)phenyl]propionic acid (N-hydroxy-N-methyl)amide] stands 64 nM; under `CN(O)C(=O)C=NOC(CCCc1ccc(Cl)cc1)c1ccc(OCc2ccc3ccccc3n2)cc1` (stereo not drawn) [Example 6, {[4-(4-Chlorophenyl)-1-(4-[2-quinolinylmethoxy]phenyl)butyl]iminoxy}acetic acid N-hydroxy-N-methyl-amide], 132 nM; under `CN(O)C(=O)C(c1ccc(OCc2ccc3ccccc3n2)cc1)C1CCCCC1` (stereo not drawn) [Example 8, 2-Cyclohexyl-2-[4-(quinolin-2-yl-methoxy)phenyl]acetic acid N-hydroxy-N-methyl-amide], 33 nM. Still for that read-out and setting: under `CNOC(=O)C(CC1CCCCC1)c1ccc(OCc2ccc3ccccc3n2)cc1` (stereo not drawn) [Example 13, N-Methyl-O-{3-cyclohexyl-2-[4-(quinolin-2-yl-methoxy)phenyl]-propionyl}-hydroxylamine] stands 68 nM; under `CNOC(=O)C(CC1CCCCC1)c1ccc(OCc2ccccn2)cc1` (stereo not drawn) [Example 14, N-Methyl-O-{3-cyclohexyl-2-[4-(pyrid-2-yl-methoxy)phenyl]propionyl}-hydroxylamine], 1650 nM. As for `CNOC(=O)C(c1ccc(OCc2ccc3ccccc3n2)cc1)C1CCCCC1` (stereo not drawn) [Example 15, N-Methyl-O-{2-cyclohexyl-2-[4-(quinolin-2-yl-methoxy)phenyl]-acetyl}-hydroxylamine], the half-maximal inhibitory concentration (IC50) was 95 nM.

On to `CN(C)OC(=O)C(CC1CCCCC1)c1ccc(OCc2ccc3ccccc3n2)cc1` (stereo not drawn) [Example 17], for which the half-maximal inhibitory concentration (IC50) is 45 nM.
